Reference: ChEMBL document CHEMBL1201862, “PubChem BioAssay data set” (2004)
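Each compound was tested at five concentrations against cells in 96-well plates for 48 hours. Abbreviation: GI50, concentration required for 50% inhibition of growth.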 The source made the active and inactive calls. Rule as the data show it: active = GI50 up to about 1.1 µM and inactive = higher.

Columns and labels:
Assay in all cases: NCI anticancer screen, dose series, 48 h
[1] = tested on: LOX IMVI
[2] = tested on: SR
[3] = tested on: K562
[4] = tested on: SK-MEL-2
[5] = tested on: CCRF-CEM
[6] = tested on: UACC-62
[7] = tested on: A549
[8] = tested on: UO-31
[9] = tested on: SF-539
[10] = tested on: CAKI-1
[11] = tested on: SW-620
[12] = tested on: SK-MEL-28
[13] = tested on: ACHN
[14] = tested on: SNB-78
[15] = tested on: RPMI-8226
[16] = tested on: HOP-62
[17] = tested on: SF-268

Measured: GI50

Cc1cc2c(=O)cc(-c3ccc(O)cc3)oc2c(C(=O)O)c1C
inactive: [1] > 100 µM | [2] > 100 µM | [3] > 100 µM | [4] > 100 µM | [5] > 100 µM | [6] > 100 µM | [7] > 100 µM | [8] > 100 µM | [9] > 100 µM | [10] 22 µM | [11] > 100 µM | [12] > 100 µM | [13] > 100 µM | [14] > 100 µM | [15] > 100 µM | [16] > 100 µM

CCCCC(C(=O)C(=O)Nc1ccccc1CC)C(=O)C(C)C (stereo not given)
inactive: [1] > 100 µM | [3] > 100 µM | [4] > 100 µM | [5] > 100 µM | [17] > 100 µM | [6] > 100 µM | [7] > 100 µM | [8] > 100 µM | [9] > 100 µM | [10] > 100 µM | [11] > 100 µM | [13] > 100 µM | [14] > 100 µM | [15] > 100 µM

C=CCSc1ncnc2c1ncn2C1OC(CO)C(O)C1O (stereo not given)
inactive: [1] 4.72 µM | [2] > 100 µM | [3] 5.35 µM | [4] 58.7 µM | [5] > 100 µM | [17] 34.7 µM | [6] > 100 µM | [7] > 100 µM | [8] 42.1 µM | [9] 37.5 µM | [10] 17.7 µM | [11] 14.4 µM | [12] > 100 µM | [13] 20.1 µM | [14] > 100 µM | [15] 32.5 µM | [16] 35.1 µM

Cc1ccc(-c2cc(-c3ccco3)nc(N)n2)o1
inactive: [1] > 100 µM | [2] > 100 µM | [3] > 100 µM | [4] > 100 µM | [5] > 100 µM | [17] > 100 µM | [6] > 100 µM | [7] > 100 µM | [8] 58.2 µM | [9] > 100 µM | [11] > 100 µM | [12] > 100 µM | [13] > 100 µM | [14] > 100 µM | [15] > 100 µM | [16] > 100 µM

CCCCCCCCCCCCCCCC(=O)OCC1OC(N2C(=O)/C(=N\NC(N)=S)c3ccc([N+](=O)[O-])cc32)C(OC(C)=O)C1OC(C)=O (stereo not given)
inactive: [1] 99.3 µM | [2] > 100 µM | [3] > 100 µM | [4] > 100 µM | [5] > 100 µM | [17] > 100 µM | [6] 69.7 µM | [7] 56.2 µM | [9] > 100 µM | [10] > 100 µM | [11] > 100 µM | [12] > 100 µM | [13] 48.5 µM | [14] > 100 µM | [15] > 100 µM | [16] > 100 µM

CC1(C)C(=O)C(O)=CC2C1=CCC1C2(C)C(=O)CC2(C)C(C(C)(O)C(=O)CC(O)C(C)(C)O)C(O)CC12C (stereo not given)
inactive: [1] 2.5 µM | [2] 4 µM | [3] 4.66 µM | [4] 2.61 µM | [5] 3.01 µM | [17] 3.11 µM | [6] 5.52 µM | [7] 3.04 µM | [8] 2.02 µM | [9] 2.57 µM | [10] 2.12 µM | [11] 3.57 µM | [12] 2.69 µM | [13] 2.3 µM | [14] 3.78 µM | [15] 3.4 µM | [16] 4.63 µM

COc1cc(OC)c2c(=O)c3cccc([N+](=O)[O-])c3n(C)c2c1
inactive: [1] 80.4 µM | [3] > 100 µM | [4] > 100 µM | [5] 60 µM | [17] > 100 µM | [6] > 100 µM | [7] > 100 µM | [8] > 100 µM | [9] 74 µM | [10] > 100 µM | [11] > 100 µM | [12] > 100 µM | [14] > 100 µM | [15] > 100 µM

CC/C(=C(\c1ccccc1)c1ccc(OCC[N+](C)(C)C)cc1)c1ccccc1 [TAMOXIFEN METHYL IODIDE]
inactive: [1] 11.3 µM | [3] 5.65 µM | [4] 13.8 µM | [5] 11.5 µM | [17] 15.3 µM | [6] 11 µM | [7] 18.7 µM | [8] 21.1 µM | [9] 21.6 µM | [10] 17.5 µM | [11] 16 µM | [12] 8.59 µM | [13] 17.5 µM | [14] 12.2 µM | [15] 9.29 µM | [16] 32.4 µM

O=C1OC(O)c2cc3c(cc21)OCO3 (stereo not given)
inactive: [1] > 100 µM | [3] > 100 µM | [4] > 100 µM | [5] > 100 µM | [17] > 100 µM | [6] > 100 µM | [7] > 100 µM | [8] > 100 µM | [9] > 100 µM | [10] > 100 µM | [11] > 100 µM | [12] > 100 µM | [14] > 100 µM | [15] > 100 µM | [16] > 100 µM

CCN(CC)c1ccc(Cl)c2c1C(O)(C(C)C)C2(C)C (stereo not given)
inactive: [1] 17.3 µM | [3] 19 µM | [4] 14.1 µM | [5] 18.5 µM | [17] 28.2 µM | [7] 19.9 µM | [8] 17.3 µM | [9] 19.8 µM | [10] 20 µM | [11] 18.1 µM | [12] 22.4 µM | [13] 17.4 µM | [14] 28.2 µM | [15] 13.2 µM | [16] 23.7 µM

Cc1c(C(=O)/C=C/C=C/c2ccccc2)[n+]([O-])c2ccccc2[n+]1[O-]
inactive: [1] 31.1 µM | [3] 31.8 µM | [4] 31.7 µM | [5] 34 µM | [17] 29.5 µM | [6] 16 µM | [7] 22.9 µM | [8] 38.4 µM | [9] 40 µM | [10] 51.8 µM | [11] 22.4 µM | [12] 18.9 µM | [13] 25.7 µM | [14] 42 µM | [15] > 10 µM | [16] 25.3 µM

Nc1nc2c3nc(Nc4ccccc4)sc3nc(=S)n2c2sc(Nc3ccccc3)nc12
inactive: [2] 5.19 µM | [3] > 100 µM | [17] 12.1 µM | [6] 46.7 µM | [7] > 100 µM | [8] > 100 µM | [9] > 100 µM | [11] > 100 µM | [12] > 100 µM | [13] > 100 µM | [14] 22.5 µM | [16] > 100 µM

C/C=C1\Oc2ccc(OC)cc2S1(=O)=O
inactive: [1] > 100 µM | [2] > 100 µM | [3] > 100 µM | [4] > 100 µM | [5] > 100 µM | [17] > 100 µM | [6] > 100 µM | [7] > 100 µM | [8] > 100 µM | [10] > 100 µM | [11] > 100 µM | [12] > 100 µM | [13] > 100 µM | [14] > 100 µM | [15] > 100 µM | [16] > 100 µM
